In US5240959A, “Aranorosinol-A and aranorosinol-B produced by Pseudoarachniotus roseus” (Hoechst Aktiengesellschaft, priority 1991, dated 1993):
In brackets after ≈: the same amount, converted by molar mass.

How the values were obtained:
[1] = test system: Microsporum; experiment: Minimum inhibitory concentration, Microsporum; format: cell-based
Source text: (§1) The minimum inhibitory concentrations required to inhibit different bacteria and fungal strains by Aranorosinol-A and Aranorosinol-B are given in Table I

[2] = Solubility; format: physicochemical
[3] = test system: Pseudomonas aeruginosa; experiment: Minimum inhibitory concentration, Pseudomonas aeruginosa; format: cell-based
Source text: as §1

[4] = test system: Aspergillus niger; experiment: Minimum inhibitory concentration, Aspergillus niger; format: cell-based
Source text: as §1

[5] = test system: Trichophyton mentagrophytes; experiment: Minimum inhibitory concentration, Trichophyton mentagrophytes; format: cell-based
Source text: as §1

[6] = test system: Salmonella typhimurium; experiment: Minimum inhibitory concentration, Salmonella typhimurium; format: cell-based; settings: Salmonella enterica
Source text: as §1

[7] = test system: Staphylococcus aureus 209 P; experiment: Minimum inhibitory concentration, Staphylococcus aureus 209 P; format: cell-based
Source text: as §1

[8] = test system: Saccharomyces cerevisiae; experiment: Minimum inhibitory concentration, Saccharomyces cerevisiae; format: cell-based
Source text: as §1

[9] = test system: E. coli 9632; experiment: Minimum inhibitory concentration, E. coli 9632; format: cell-based; settings: Escherichia coli
Source text: as §1

[10] = test system: bacteria and fungal strains; experiment: Antibacterial and antifungal activity spectrum; format: cell-based; settings: conclusion from Table I
Source text: as §1

[11] = test system: E. coli Ess 2231; experiment: Minimum inhibitory concentration, E. coli Ess 2231; format: cell-based; settings: Escherichia coli, ESS2231
Source text: as §1

[12] = test system: Klebsiella pneumoniae; experiment: Minimum inhibitory concentration, Klebsiella pneumoniae; format: cell-based
Source text: as §1

[13] = test system: Proteus vulgaris; experiment: Minimum inhibitory concentration, Proteus vulgaris; format: cell-based
Source text: as §1

[14] = test system: Bacillus subtilis; experiment: Minimum inhibitory concentration, Bacillus subtilis; format: cell-based
Source text: as §1

[15] = test system: Candida albicans; experiment: Minimum inhibitory concentration, Candida albicans; format: cell-based
Source text: as §1

[16] = test system: Streptococcus faecalis; experiment: Minimum inhibitory concentration, Streptococcus faecalis; format: cell-based; settings: Enterococcus faecalis
Source text: as §1

[17] = test system: Staphylococcus aureus 20240; experiment: Minimum inhibitory concentration, Staphylococcus aureus 20240; format: cell-based
Source text: as §1

[18] = in dichloromethane, chloroform, acetone, methanol, diethyl ether, ethyl acetate and dimethyl sulfoxide

Q: For `CCCCCCC(C)/C=C(C)/C=C/C(=O)NC1CC2(OC1O)C1OC1C(O)(CC(C)=O)C1OC12` (stereo not drawn) [Aranorosinol-B], which MIC [1] is on record?
A: > 250 mg/L

Q: What about the Solubility [2, 18] of the same molecule?
A: soluble

Q: What about the Solubility ([2]; in n-hexane, water) of the same molecule?
A: Insoluble

Q: What about the MIC [3] of the same molecule?
A: > 250 mg/L

Q: What about the MIC [4] of the same molecule?
A: > 250 mg/L

Q: And the MIC [5]?
A: > 250 mg/L

Q: What about the MIC [6] of the same molecule?
A: > 250 mg/L

Q: What about the MIC [7] of the same molecule?
A: 31.2 mg/L (≈ 65.4 µM)

Q: What about the MIC [8] of the same molecule?
A: 250 mg/L (≈ 523 µM)

Q: And the MIC [9]?
A: > 250 mg/L

Q: What about the “activity against bacteria and fungi (in words)” value [10] of the same molecule?
A: active against Gram-positive bacteria only

Q: And the MIC [11]?
A: > 250 mg/L

Q: What about the MIC [12] of the same molecule?
A: > 250 mg/L

Q: And the MIC [13]?
A: > 250 mg/L

Q: And the MIC [14]?
A: 15.6 mg/L (≈ 32.7 µM)

Q: What about the MIC [15] of the same molecule?
A: 250 mg/L (≈ 523 µM)

Q: What about the MIC [16] of the same molecule?
A: 125 mg/L (≈ 262 µM)

Q: What about the MIC [17] of the same molecule?
A: 15.6 mg/L (≈ 32.7 µM)

Q: For `CCCCCCC(C)/C=C(C)/C=C/C(=O)NC1CC2(OC1O)C1OC1C(O)C1OC12` (stereo not drawn) [Aranorosinol-A], which MIC [1] is on record?
A: > 250 mg/L

Q: And the Solubility [2, 18]?
A: soluble

Q: What about the Solubility ([2]; in n-hexane, water) of the same molecule?
A: Insoluble

Q: And the MIC [3]?
A: > 250 mg/L

Q: What about the MIC [4] of the same molecule?
A: > 250 mg/L

Q: What about the MIC [5] of the same molecule?
A: 62.5 mg/L (≈ 148 µM)

Q: What about the MIC [6] of the same molecule?
A: > 250 mg/L

Q: And the MIC [7]?
A: 15.6 mg/L (≈ 37 µM)

Q: And the MIC [8]?
A: 31.2 mg/L (≈ 74.1 µM)

Q: What about the MIC [9] of the same molecule?
A: > 250 mg/L

Q: And the “activity against bacteria and fungi (in words)” value [10]?
A: active against Gram-positive, Gram-negative bacteria and against yeast and filamentous fungi

Q: And the MIC [11]?
A: 62.5 mg/L (≈ 148 µM)

Q: And the MIC [12]?
A: > 250 mg/L

Q: What about the MIC [13] of the same molecule?
A: > 250 mg/L

Q: What about the MIC [14] of the same molecule?
A: 3.9 mg/L (≈ 9.25 µM)

Q: And the MIC [15]?
A: 62.5 mg/L (≈ 148 µM)

Q: What about the MIC [16] of the same molecule?
A: 31.2 mg/L (≈ 74.1 µM)

Q: What about the MIC [17] of the same molecule?
A: 31.2 mg/L (≈ 74.1 µM)
